These results are taken from patent publication US7132458B2, “Oxidized carotenoid fractions and ketoaldehyde useful as cell-differentiation inducers, cytostatic agents, and anti-tumor agents” (Chemaphor Inc., priority 1994, dated 2006).

Structures are written as SMILES.

One assay deals with IMR32 cell line. The experiment in a line: Expression of NF and GFAP markers. In kind it is cell-based, human. The conditions noted are these: β-Car^OX 0 μM. An excerpt:
Expression of glial fibrillary acidic protein, GFAP, is a useful marker indicating differentiation towards glial cells.

In assay [1] the test system is NB4. The experiment in a line: Differentiating properties of combinations of β-Car^OX and retinoic acid. In kind it is cell-based, human. The conditions noted are these: Retinoic Acid L 0.1–1 μM alone. An excerpt: (§1) Given the cell differentiation-inducing properties of β-Car^OX and some of its fractions, it is instructive not only to compare the effects obtained with those of the better known all-trans retinoic acid, which is recognized as being able to regulate differentiation capacities of several mammalian cell types, but to determine also the effect upon cells when β-Car^OX and retinoic acid are used together. Table 4 presents qualitative data illustrating the results obtained with various combinations of β-Car^OX and retinoic acid in both the NB4 and IMR32 cell lines.
(§2) When an equipotent concentration of β-Car^OX is combined with retinoic acid, their differentiation-inducing effects cancel out. However, when the concentration of either one of them is increased relative to the other, differentiation-induction is restored.

Assay [2] deals with IMR32. The assay is described as above. The assay is classed as cell-based, human. The note with it: Retinoic Acid L 1–2.5 μM alone.
Excerpt: as §1, §2

A further assay has as its system NB4 cells. The experiment in a line: Cell cycling, flow cytometry of intracellular DNA content. In kind it is cell-based, human. The note with it: synchronized populations, controls 22 hours. How it is done: There is no G1 block. This effect is due to a lengthening of the duration of the cell cycle. […] The data were acquired using flow cytometry analysis of the individual intracellular DNA content of cells from synchronized populations. Sampling was done every 5 hours over a period of 48 hours.
On the technique in general: Flow cytometry measures light scatter and fluorescence of single cells or particles in a stream.

In the next assay the test system is NB4 cell line. Kind of assay: Expression of differentiation markers CD33, CD11b, CD15 at five days. In kind it is cell-based, human. The conditions noted are these: combined treatments 1 μM RA and 7.5 μM β-Car^OX or fraction. How it is done:
The cell differentiation-inducing effects of the fractions were determined qualitatively by observation of morphological changes in cell lines and quantitatively by measuring the expression of characteristic protein markers using monoclonal antibodies and flow cytometry. […] Many differentiation markers are expressed transiently during the differentiation program. In the NB4 cell line, protein CD33 is associated with early stages of differentiation, followed by protein CD11b, an intermediate marker, and eventually by protein CD15, an advanced differentiation marker. Enhanced differentiation therefore will be characterized by a decrease in the expression and intensity of the CD33 marker and an increase in expression and intensity of the CD15 marker.

A further assay concerns Balb/c/MK keratinocytes. The experiment in a line: Expression of cytokeratins in keratinocytes. In kind it is cell-based, mouse. The conditions noted are these: Ca^++ 1.8 mM, Retinoic Acid 3 μM, β-Car^OX 30 μM; for IA, intensity of expression per cell, Cytokeratins 1 and 10: control 4.4; for IA, intensity of expression per cell, panel (CAMON) of Cytokeratins: control 60.7; for A, percentage of immunopositive cells expressing Cytokeratins 1 and 10: control 90.3; for A, percentage of immunopositive cells expressing a panel (CAMON) of Cytokeratins: control 93.7. From the text:
Qualitative data were provided in the first phase of research for the differentiation-inducing effect of β-Car^OX upon the mouse Balb/c/MK keratinocyte cell line.
Cytokeratins 1 and 10 are high molecular weight proteins which are increasingly expressed with the progression of the differentiation program. […] Cells cultured in low calcium media remain proliferative. […] The apparently smaller effect of β-Car^OX compared to retinoic acid is due not to lower potency but to a delayed action and similar results are obtained using a panel of other cytokeratins (Cytokeratin coctail from CAMON containing cytokeratins 1–8, 10, 13, 14, 15, 16, 19).

For assay [3], the system named is NB4. Kind of assay: Cytostatic effect (Hoechst 33258 DNA fluorescence, 3 days). On the set-up: key: +: activity higher; 0: similar to; −: less than the activity of β-Car^OX. The conditions noted are these: ranked relative to β-Car^OX across six concentrations 2.5-22.5 μM. In kind it is cell-based, human. How it is done:
(§3) Fractions were tested for cytostatic properties and ability to induce differentiation. The results were compared with those obtained for β-Car^OX, which served as a reference indicating whether or not fractionation was leading to fractions with enhanced activity. Retinoic acid and/or β-carotene were used as controls in some of the cell lines tested in order to differentiate their effects from that of β-Car^OX. All of the samples were tested in identical ‘by weight’ concentrations. Comparisons have been done on a pseudo molarity scale by dividing the weight of sample used by the molecular weight of β-carotene (537 Da). Fractions were tested in human colon carcinoma (HCT116), human neuroblastoma (IMR32), human acute promyelocytic leukemia (NB4), human chronic myelogenous leukemia (K562), and mouse keratinocytes (Balb/c/MK).
(§4) Fractions have been ranked relative to β-Car^OX by dividing each growth inhibition value at each sample concentration by the corresponding β-Car^OX value and determining qualitatively by inspection the trends across the six sample concentrations. Activities of fractions are expressed as “+”, “0”, and “−”, indicating activity higher, similar to, and less than the activity of β-Car^OX, respectively.

In another assay the test system is K562. The assay is described as above. The assay is classed as cell-based, human. On the set-up: key: +: activity higher; 0: similar to; −: less than the activity of β-Car^OX. The conditions noted are these: ranked relative to β-Car^OX across six concentrations 2.5-22.5 μM. The method, then: as §3, §4
Assay [4] relates to IMR32. Described as above. The assay is classed as cell-based, human. On the set-up: key: +: activity higher; 0: similar to; −: less than the activity of β-Car^OX. The note with it: ranked relative to β-Car^OX across six concentrations 2.5-45 μM. The method, then: as §3, §4
The next assay relates to HCT116. Described as above. On the set-up: key: +: activity higher; 0: similar to; −: less than the activity of β-Car^OX. The conditions noted are these: ranked relative to β-Car^OX across six concentrations 2.5-45 μM. In kind it is cell-based, human. The method, then:
as §3, §4

The test system of another assay is DA-3 cell line. Kind of assay: Viability (MTT test), melphalan with β-Car^OX. The assay is classed as cell-based. The note with it: Mus musculus. An excerpt:
The benefit of the cellular GSH-lowering effect is illustrated by what happens to the viability of DA-3 cells, using the MTT test, treated with both β-Car^OX and melphalan, a classical anticancer agent.
On the technique in general: Formazan colour is commonly taken as a measure of viable cells.

Turning to `CC1=C(/C=C/C(C)=C/C=C/C(C)=C/C(=O)O)C(C)(C)CCC1` [All trans Retinoic Acid], in the assay on IMR32 cell line (RA 1.0 μM), the GFAP % is reported as 94.4%, the GFAP intensity is given as 18.4, the NF % is listed as 96.4% and the NF intensity came to 14.2. Further, in the assay with IMR32 cell line (RA 2.5 μM), the GFAP % amounted to 90.5%, the GFAP intensity is recorded as 6.1, the NF % turned out to be 97.2% and the NF intensity came out at 11.9. Moreover, in the assay with IMR32 cell line (RA 5.0 μM), the GFAP % is 87.5%, the GFAP intensity is 5.2, the NF % stood at 95.5% and the NF intensity is given as 8.4. In the assay with IMR32 cell line (RA 10.0 μM), the GFAP % is on record as 83.1%, the GFAP intensity is 4.0, the NF % came to 92.0% and the NF intensity worked out at 7.9. In addition, the Differentiation entry with NB4 [1] is recorded as “yes”. Also, the Differentiation entry in the assay with IMR32 [2] is given as “yes”. Further, the “duration of the cell cycle” value with NB4 cells is 18 h. In addition, in the assay with NB4 cell line, the “CD11b A, percentage of immunopositive cells” value was found to be 71.9; the “CD11b IA, average intensity of marker expression per cell” value stood at 2.6 arbitrary units; the “CD15 A, percentage of immunopositive cells” value came to 73.1; the “CD15 IA, average intensity of marker expression per cell” value was determined as 73.1 arbitrary units. In addition, in the assay with NB4 cell line, the “CD33 A, percentage of immunopositive cells” value was 87.1 and the “CD33 IA, average intensity of marker expression per cell” value turned out to be 1.6 arbitrary units. In the assay with Balb/c/MK keratinocytes, the “IA, intensity of expression per cell, Cytokeratins 1 and 10” value was 15.4 arbitrary units; the “IA, intensity of expression per cell, panel (CAMON) of Cytokeratins” value came out at 129.8 arbitrary units; the “A, percentage of immunopositive cells expressing Cytokeratins 1 and 10” value was found to be 94.5; the “A, percentage of immunopositive cells expressing a panel (CAMON) of Cytokeratins” value was found to be 94.3. The “Cytostatic Effect On Cell Lines, NB4” value with NB4 [3] is 0. In addition, the “Cytostatic Effect On Cell Lines, K562” value with K562 is 0. For the same compound, the “Cytostatic Effect On Cell Lines, IMR32” value with IMR32 [4] is “+”. For the same compound, the “Cytostatic Effect On Cell Lines, HCT116” value with HCT116 is recorded as “−”.

`[Ca+2]` [Ca^++]: in the assay with Balb/c/MK keratinocytes, the “IA, intensity of expression per cell, Cytokeratins 1 and 10” value came out at 13.8 arbitrary units; the “IA, intensity of expression per cell, panel (CAMON) of Cytokeratins” value stood at 87.2 arbitrary units; the “A, percentage of immunopositive cells expressing Cytokeratins 1 and 10” value is reported as 96.5; the “A, percentage of immunopositive cells expressing a panel (CAMON) of Cytokeratins” value came out at 97.6.

A word on the IC50: it is the concentration at which inhibition is half-maximal. On to `N[C@@H](Cc1ccc(N(CCCl)CCCl)cc1)C(=O)O` [Melphalan], for which the IC50 turned out to be 40 µM in the assay with DA-3 cell line (DA-3, in presence of β-Car^OX 5 μM); 44 µM with DA-3 cell line (DA-3, in presence of β-Car^OX 7.5 μM); 6.6 µM in the assay with DA-3 cell line (DA-3, in presence of β-Car^OX 10 μM); 6.8 µM in the assay on DA-3 cell line (DA-3, in presence of β-Car^OX 20 μM); 100 µM in the assay with DA-3 cell line (DA-3, β-Car^OX 0 μM).

With `CC1=C(/C=C/C(C)=C/C=C/C(C)=C/C=C/C=C(C)/C=C/C=C(C)/C=C/C2=C(C)CCCC2(C)C)C(C)(C)CCC1` [β-Carotene], the “Cytostatic Effect On Cell Lines, NB4” value in the assay with NB4 [3] is listed as “−”. Further, the “Cytostatic Effect On Cell Lines, K562” value in the assay on K562 is “−”. Besides, the “Cytostatic Effect On Cell Lines, IMR32” value in the assay on IMR32 [4] was 0. In addition, in the assay on HCT116, the “Cytostatic Effect On Cell Lines, HCT116” value is on record as “−”.
